Test results as given in ChEMBL document CHEMBL2429845, “Design, synthesis, and antimicrobial activity of some novel homodrimane sesquiterpenoids with diazine skeleton” (2013).

Tests used:
Bacillus subtilis [1] = experiment: Antibacterial activity against Bacillus subtilis at 10 mg/ml after 24 hrs by agar diffusion assay; assay type: functional; details: read-out: DIZ
Nakaseomyces glabratus [2] = experiment: Antifungal activity against Candida glabrata ATCC MYA 2950 at 10 mg/ml after 48 hrs by agar diffusion assay; assay type: functional; details: ATCC MYA 2950, 48 h, read-out: DIZ
Escherichia coli [3] = experiment: Antibacterial activity against Escherichia coli ATCC 25922 at 10 mg/ml after 24 hrs by agar diffusion assay; assay type: functional; details: ATCC 25922, 24 h, read-out: DIZ
Bacillus cereus [4] = experiment: Antibacterial activity against Bacillus cereus ATCC 14579 at 10 mg/ml after 24 hrs by agar diffusion assay; assay type: functional; details: ATCC 14579, 24 h, read-out: DIZ
Candida albicans [5] = experiment: Antifungal activity against Candida albicans ATCC 10231 at 10 mg/ml after 48 hrs by agar diffusion assay; assay type: functional; details: ATCC 10231, 48 h, read-out: DIZ
Pseudomonas aeruginosa [6] = experiment: Antibacterial activity against Pseudomonas aeruginosa ATCC 27853 at 10 mg/ml after 24 hrs by agar diffusion assay; assay type: functional; details: ATCC 27853, 24 h, read-out: DIZ
Staphylococcus aureus [7] = experiment: Antibacterial activity against Staphylococcus aureus ATCC 25923 at 10 mg/ml after 24 hrs by agar diffusion assay; assay type: functional; details: ATCC 25923, 24 h, read-out: DIZ
[Candida] sake [8] = Antifungal activity against Candida sake at 10 mg/ml after 48 hrs by agar diffusion assay; assay type: functional; details: Fermentozyma sake, read-out: DIZ
Micrococcus luteus [9] = experiment: Antibacterial activity against Sarcina lutea ATCC 9341 at 10 mg/ml after 24 hrs by agar diffusion assay; assay type: functional; details: ATCC 9341, 24 h, read-out: DIZ
Micrococcus luteus [10] = experiment: Antibacterial activity against Sarcina lutea ATCC 9341 at 30 ug/disk after 24 hrs by agar diffusion assay; assay type: functional; details: ATCC 9341, 24 h, read-out: DIZ
Pseudomonas aeruginosa [11] = experiment: Antibacterial activity against Pseudomonas aeruginosa ATCC 27853 at 30 ug/disk after 24 hrs by agar diffusion assay; assay type: functional; details: ATCC 27853, 24 h, read-out: DIZ
Bacillus subtilis [12] = experiment: Antibacterial activity against Bacillus subtilis at 30 ug/disk after 24 hrs by agar diffusion assay; assay type: functional; details: read-out: DIZ
Staphylococcus aureus [13] = experiment: Antibacterial activity against Staphylococcus aureus ATCC 25923 at 30 ug/disk after 24 hrs by agar diffusion assay; assay type: functional; details: ATCC 25923, 24 h, read-out: DIZ
Bacillus cereus [14] = experiment: Antibacterial activity against Bacillus cereus ATCC 14579 at 30 ug/disk after 24 hrs by agar diffusion assay; assay type: functional; details: ATCC 14579, 24 h, read-out: DIZ
Escherichia coli [15] = experiment: Antibacterial activity against Escherichia coli ATCC 25922 at 30 ug/disk after 24 hrs by agar diffusion assay; assay type: functional; details: ATCC 25922, 24 h, read-out: DIZ
Candida albicans [16] = experiment: Antifungal activity against Candida albicans ATCC 10231 at 100 mg/disk after 48 hrs by agar diffusion assay; assay type: functional, organism-based
Nakaseomyces glabratus [17] = experiment: Antifungal activity against Candida glabrata ATCC MYA 2950 100 mg/disk after 48 hrs by agar diffusion assay; assay type: functional, organism-based
[Candida] sake [18] = Antifungal activity against Candida sake 100 mg/disk after 48 hrs by agar diffusion assay; assay type: functional, organism-based
Pseudomonas aeruginosa [19] = experiment: Antibacterial activity against Pseudomonas aeruginosa ATCC 27853 at 25 ug/disk after 24 hrs by agar diffusion assay; assay type: functional; details: ATCC 27853, 24 h, read-out: DIZ
Bacillus cereus [20] = experiment: Antibacterial activity against Bacillus cereus ATCC 14579 at 25 ug/disk after 24 hrs by agar diffusion assay; assay type: functional; details: ATCC 14579, 24 h, read-out: DIZ
Bacillus subtilis [21] = experiment: Antibacterial activity against Bacillus subtilis at 25 ug/disk after 24 hrs by agar diffusion assay; assay type: functional; details: read-out: DIZ
Staphylococcus aureus [22] = experiment: Antibacterial activity against Staphylococcus aureus ATCC 25923 at 25 ug/disk after 24 hrs by agar diffusion assay; assay type: functional; details: ATCC 25923, 24 h, read-out: DIZ
Escherichia coli [23] = experiment: Antibacterial activity against Escherichia coli ATCC 25922 at 25 ug/disk after 24 hrs by agar diffusion assay; assay type: functional; details: ATCC 25922, 24 h, read-out: DIZ
Micrococcus luteus [24] = experiment: Antibacterial activity against Sarcina lutea ATCC 9341 at 25 ug/disk after 24 hrs by agar diffusion assay; assay type: functional; details: ATCC 9341, 24 h, read-out: DIZ

Compound | zone of inhibition at 10000 µg/mL (Bacillus subtilis [1]) [mm] | zone of inhibition at 10000 µg/mL (Nakaseomyces glabratus [2]) [mm] | zone of inhibition at 10000 µg/mL (Escherichia coli [3]) [mm] | zone of inhibition at 10000 µg/mL (Bacillus cereus [4]) [mm] | zone of inhibition at 10000 µg/mL (Candida albicans [5]) [mm] | zone of inhibition at 10000 µg/mL (Pseudomonas aeruginosa [6]) [mm] | zone of inhibition at 10000 µg/mL (Staphylococcus aureus [7]) [mm] | zone of inhibition at 10000 µg/mL ([Candida] sake [8]) [mm] | zone of inhibition at 10000 µg/mL (Micrococcus luteus [9]) [mm] | also measured
C=C1CC[C@H]2C(C)(C)CCC[C@]2(C)[C@H]1CC(=O)Nc1cnccn1 | 0 | 0 | 0 | 10 | 0 | 0 | 15 | 0 | 0 | 
O=C(N[C@H](CO)[C@H](O)c1ccc([N+](=O)[O-])cc1)C(Cl)Cl [CHLORAMPHENICOL] |  |  |  |  |  |  |  |  |  | zone of inhibition at 30 µg/disc (Micrococcus luteus [10]): 30 mm; zone of inhibition at 30 µg/disc (Pseudomonas aeruginosa [11]): 19 mm; zone of inhibition at 30 µg/disc (Bacillus subtilis [12]): 31 mm; zone of inhibition at 30 µg/disc (Staphylococcus aureus [13]): 25 mm; zone of inhibition at 30 µg/disc (Bacillus cereus [14]): 28 mm; zone of inhibition at 30 µg/disc (Escherichia coli [15]): 29 mm
C=C1CC[C@H]2C(C)(C)CCC[C@]2(C)[C@H]1CC(=O)N(C(=O)C[C@H]1C(=C)CC[C@H]2C(C)(C)CCC[C@]12C)c1ncccn1 | 0 | 0 | 0 | 0 | 0 | 10 | 10 | 0 | 0 | 
NYSTATIN |  |  |  |  |  |  |  |  |  | inhibition zone (IZ) (Candida albicans [16]): 29 mm; inhibition zone (IZ) (Nakaseomyces glabratus [17]): 26 mm; inhibition zone (IZ) ([Candida] sake [18]): 31 mm
C=C1CC[C@H]2C(C)(C)CCC[C@]2(C)[C@H]1CC(=O)Nc1ccncn1 | 7 | 0 | 12 | 10 | 0 | 0 | 15 | 0 | 18 | 
C=C1CC[C@H]2C(C)(C)CCC[C@]2(C)[C@H]1CC(=O)Nc1ncccn1 | 7 | 0 | 10 | 12 | 0 | 0 | 14 | 0 | 19 | 
CC1(C)S[C@@H]2[C@H](NC(=O)[C@H](N)c3ccccc3)C(=O)N2[C@H]1C(=O)O [AMPICILLIN] |  |  |  |  |  |  |  |  |  | zone of inhibition at 25 µg/disc (Pseudomonas aeruginosa [19]): 0 mm; zone of inhibition at 25 µg/disc (Bacillus cereus [20]): 0 mm; zone of inhibition at 25 µg/disc (Bacillus subtilis [21]): 25 mm; zone of inhibition at 25 µg/disc (Staphylococcus aureus [22]): 25 mm; zone of inhibition at 25 µg/disc (Escherichia coli [23]): 20 mm; zone of inhibition at 25 µg/disc (Micrococcus luteus [24]): 30 mm
C=C1CC[C@H]2C(C)(C)CCC[C@]2(C)[C@H]1CC(=O)N(C(=O)NC1CCCCC1)C1CCCCC1 | 0 | 0 | 0 | 11 | 0 | 0 | 19 | 0 | 0 | 
